Laboratory results as given in patent US12552783B2, “Modulators of proteolysis and associated methods of use” (Arvinas Operations, Inc., priority 2018, dated 2026).

Target: KRas (Homo sapiens, UniProt P01116, G12C)
Assay: KRas degradation in NCI-H2030 cells by Western blot, normalized to GAPDH (data of Table 14)
Format: cell-based
Design: host or cells: NCI-H2030
Conditions: for Percent Degradation at Indicated Concentration (μM): H2030; for Dmax: NCI-H2030; for Percent Degradation at Indicated Concentration (μM): 0.1: 0.1 μM
How it was run: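 After a day without serum, the G12C-homozygous cells received each compound at 0.3, 1 and 3 μM, with VHL-based degraders left for 24 h and other compounds for 72 h. DC50 is the concentration giving half-maximal degradation and DMax the maximal degradation, both taken from KRas levels normalized to GAPDH.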

SMILES	Percent Degradation at Indicated Concentration (μM) (0.3 μM)	Percent Degradation at Indicated Concentration (μM) (1 μM)	Percent Degradation at Indicated Concentration (μM) (3 μM)	Dmax	Percent Degradation at Indicated Concentration (μM): 0.3 (H2030 cells, 0.3 μM)	Percent Degradation at Indicated Concentration (μM): 1 (H2030 cells, 1 μM)	Percent Degradation at Indicated Concentration (μM): 3 (H2030 cells, 3 μM)	Dmax (H2030 cells)	Percent Degradation at Indicated Concentration (μM): 0.1 (H2030 cells)
Cc1ncsc1-c1ccc([C@H](C)NC(=O)[C@@H]2C[C@@H](O)CN2C(=O)[C@@H](NC(=O)COCCN(C)C(=O)CCNc2nc(N3CCN(C(=O)C(O)O)CC3)c3cc(Cl)c(-c4c(O)cccc4F)c(F)c3n2)C(C)(C)C)cc1 (atropisomer, axis not shown) [compound 234, (2S,4R)-1-((S)-2-(2-(2-(3-(((S)-6-chloro-4-(4-(2,2-dihydroxyacetyl)piperazin-1-yl)-8-fluoro-7-(2-fluoro-6-hydroxyphenyl)quinazolin-2-yl)amino)-N-methylpropanamido)ethoxy)acetamido)-3,3-dimethylbutanoyl)-4-hydroxy-N-((S)-1-(4-(4-methylthiazol-5-yl)phenyl)ethyl)pyrrolidine-2-carboxamide]	C (Percent Degradation: C ≤ 35)	C (Percent Degradation: C ≤ 35)	C (Percent Degradation: C ≤ 35)	≤ 35%	–	–	–	–	–
C=CC(=O)N1CCN(c2nc(Nc3ccc(OCCOCCOCCOCCOCC(=O)N[C@H](C(=O)N4C[C@H](O)C[C@H]4C(=O)N[C@@H](C)c4ccc(-c5scnc5C)cc4)C(C)(C)C)cc3)nc3c(F)c(-c4cc(O)cc5ccccc45)c(Cl)cc23)CC1 [compound 484]	C (Percent Degradation: C ≤ 35)	C (Percent Degradation: C ≤ 35)	C (Percent Degradation: C ≤ 35)	≤ 35%	–	–	–	–	–
C=CC(=O)N1CCN(c2nc(NCCC(=O)N(C)CCOCCOCCNc3cccc4c3C(=O)N(C3CCC(=O)NC3=O)C4=O)nc3c(F)c(-c4c(O)cccc4F)c(Cl)cc23)CC1 [compound 111, 3-(((S)-4-(4-acryloylpiperazin-1-yl)-6-chloro-8-fluoro-7-(2-fluoro-6-hydroxyphenyl)quinazolin-2-yl)amino)-N-(2-(2-(2-((2-(2,6-dioxopiperidin-3-yl)-1,3-dioxoisoindolin-4-yl)amino)ethoxy)ethoxy)ethyl)-N-methylpropanamide]	C (Percent Degradation: C ≤ 35)	C (Percent Degradation: C ≤ 35)	C (Percent Degradation: C ≤ 35)	≤ 35%	–	–	–	–	–
CCC(=O)N1CCN(c2nc(NCCC(=O)N(C)CCOCCNc3cccc4c3C(=O)N(C3CCC(=O)NC3=O)C4=O)nc3c(F)c(-c4cc(O)cc5ccccc45)c(Cl)cc23)CC1 (centres unmarked) [compound 42, 3-((6-chloro-8-fluoro-7-(3-hydroxynaphthalen-1-yl)-4-(4-propionylpiperazin-1-yl)quinazolin-2-yl)amino)-N-(2-(2-((2-(2,6-dioxopiperidin-3-yl)-1,3-dioxoisoindolin-4-yl)amino)ethoxy)ethyl)-N-methylpropanamide]	–	–	–	–	C (C ≤ 35)	C (C ≤ 35)	C (C ≤ 35)	≤ 35%	–
CCC(=O)N1CCN(c2nc(NCCC(=O)N(C)CCOCCOCCOc3cc(-c4scnc4C)ccc3CNC(=O)[C@@H]3C[C@@H](O)CN3C(=O)[C@@H](c3cc(C)no3)C(C)C)nc3c(F)c(-c4cc(O)cc5ccccc45)c(Cl)cc23)CC1 [compound 332, (2S,4R)-N-(2-(2-(2-(2-(3-((6-chloro-8-fluoro-7-(3-hydroxynaphthalen-1-yl)-4-(4-propionylpiperazin-1-yl)quinazolin-2-yl)amino)-N-methylpropanamido)ethoxy)ethoxy)-ethoxy)-4-(4-methylthiazol-5-yl)benzyl)-4-hydroxy-1-((R)-3-methyl-2-(3-methylisoxazol-5-yl)butanoyl)pyrrolidine-2-carboxamide]	–	–	–	–	C (C ≤ 35)	C (C ≤ 35)	C (C ≤ 35)	≤ 35%	–
CN(CCOCCOCCOCCNc1cccc2c1C(=O)N(C1CCC(=O)NC1=O)C2=O)C(=O)CCNc1nc(N2CCN(C(N)=O)CC2)c2cc(Cl)c(-c3cc(O)cc4ccccc34)c(F)c2n1 (centres unmarked) [compound 34, 4-(6-chloro-2-((1-((2-(2,6-dioxopiperidin-3-yl)-1,3-dioxoisoindolin-4-yl)amino)-12-methyl-13-oxo-3,6,9-trioxa-12-azapentadecan-15-yl)amino)-8-fluoro-7-(3-hydroxynaphthalen-1-yl)quinazolin-4-yl)piperazine-1-carboxamide]	C (Percent Degradation: C ≤ 35)	C (Percent Degradation: C ≤ 35)	C (Percent Degradation: C ≤ 35)	≤ 35%	–	–	–	–	–
C=CC(=O)N1CCN(c2nc(NCCC(=O)N(C)CCOCC(=O)N[C@H](C(=O)N3C[C@H](O)C[C@H]3C(=O)N[C@@H](C)c3ccc(-c4scnc4C)cc3)C(C)(C)C)nc3c(F)c(-c4cc(O)cc5ccccc45)c(Cl)cc23)CC1 [compound 191, (2S,4R)-1-((2S)-2-(2-(2-(3-((4-(4-acryloylpiperazin-1-yl)-6-chloro-8-fluoro-7-(3-hydroxynaphthalen-1-yl)quinazolin-2-yl)amino)-N-methylpropanamido)ethoxy)acetamido)-3,3-dimethylbutanoyl)-4-hydroxy-N-((S)-1-(4-(4-methylthiazol-5-yl)phenyl)ethyl)pyrrolidine-2-carboxamide]	–	–	–	–	C (C ≤ 35)	C (C ≤ 35)	–	≤ 35%	C (C ≤ 35)
C=CC(=O)N1CCN(c2nc(NCCC(=O)N(C)CCOCCOCC(=O)N[C@H](C(=O)N3C[C@H](O)C[C@H]3C(=O)N[C@@H](C)c3ccc(-c4scnc4C)cc3)C(C)(C)C)nc3c(F)c(-c4cc(O)cc5ccccc45)c(Cl)cc23)CC1 [compound 192, (2S,4R)-1-((2S)-15-((4-(4-acryloylpiperazin-1-yl)-6-chloro-8-fluoro-7-(3-hydroxynaphthalen-1-yl)quinazolin-2-yl)amino)-2-(tert-butyl)-12-methyl-4,13-dioxo-6,9-dioxa-3,12-diazapentadecanoyl)-4-hydroxy-N-((S)-1-(4-(4-methylthiazol-5-yl)phenyl)ethyl)pyrrolidine-2-carboxamide]	–	–	–	–	C (C ≤ 35)	C (C ≤ 35)	–	≤ 35%	C (C ≤ 35)
